pIC50: −log10 of the molar value.
How the values were obtained:
Test in all cases: biochemical
Parameters in all cases: species or system HEK293/K-562/placenta mixed human extract; Kinobeads chemoproteomic competition binding, quantified by TMT LC-MS/MS, dose response up to 20 uM
[1] = target: BTK (Homo sapiens, UniProt Q06187)
[2] = target: CAMKK1 (Homo sapiens, UniProt Q8N5S9)
[3] = target: CSNK2A2 (Homo sapiens, UniProt P19784)
[4] = target: EGFR (Homo sapiens, UniProt P00533)
[5] = target: EIF2AK1 (Homo sapiens, UniProt Q9BQI3)
[6] = target: EPHA1 (Homo sapiens, UniProt P21709)
[7] = target: FER (Homo sapiens, UniProt P16591)
[8] = target: MAP3K13 (Homo sapiens, UniProt O43283)
[9] = target: MAP4K1 (Homo sapiens, UniProt Q92918)
[10] = target: MARK4 (Homo sapiens, UniProt Q96L34)
[11] = target: NEK6 (Homo sapiens, UniProt Q9HC98)
[12] = target: OXSR1 (Homo sapiens, UniProt O95747)
[13] = target: PDXK (Homo sapiens, UniProt O00764)
[14] = target: PHKG2 (Homo sapiens, UniProt P15735)
[15] = target: PRKAA2 (Homo sapiens, UniProt P54646)
[16] = target: PRKD2 (Homo sapiens, UniProt Q9BZL6)
[17] = target: STK11 (Homo sapiens, UniProt Q15831)
[18] = target: STK17B (Homo sapiens, UniProt O94768)
[19] = target: TAOK1 (Homo sapiens, UniProt Q7L7X3)
[20] = target: TBK1 (Homo sapiens, UniProt Q9UHD2)
[21] = target: TP53RK (Homo sapiens, UniProt Q96S44)

Measured: pIC50

Chain of MAP3K13 (O43283 whole entry): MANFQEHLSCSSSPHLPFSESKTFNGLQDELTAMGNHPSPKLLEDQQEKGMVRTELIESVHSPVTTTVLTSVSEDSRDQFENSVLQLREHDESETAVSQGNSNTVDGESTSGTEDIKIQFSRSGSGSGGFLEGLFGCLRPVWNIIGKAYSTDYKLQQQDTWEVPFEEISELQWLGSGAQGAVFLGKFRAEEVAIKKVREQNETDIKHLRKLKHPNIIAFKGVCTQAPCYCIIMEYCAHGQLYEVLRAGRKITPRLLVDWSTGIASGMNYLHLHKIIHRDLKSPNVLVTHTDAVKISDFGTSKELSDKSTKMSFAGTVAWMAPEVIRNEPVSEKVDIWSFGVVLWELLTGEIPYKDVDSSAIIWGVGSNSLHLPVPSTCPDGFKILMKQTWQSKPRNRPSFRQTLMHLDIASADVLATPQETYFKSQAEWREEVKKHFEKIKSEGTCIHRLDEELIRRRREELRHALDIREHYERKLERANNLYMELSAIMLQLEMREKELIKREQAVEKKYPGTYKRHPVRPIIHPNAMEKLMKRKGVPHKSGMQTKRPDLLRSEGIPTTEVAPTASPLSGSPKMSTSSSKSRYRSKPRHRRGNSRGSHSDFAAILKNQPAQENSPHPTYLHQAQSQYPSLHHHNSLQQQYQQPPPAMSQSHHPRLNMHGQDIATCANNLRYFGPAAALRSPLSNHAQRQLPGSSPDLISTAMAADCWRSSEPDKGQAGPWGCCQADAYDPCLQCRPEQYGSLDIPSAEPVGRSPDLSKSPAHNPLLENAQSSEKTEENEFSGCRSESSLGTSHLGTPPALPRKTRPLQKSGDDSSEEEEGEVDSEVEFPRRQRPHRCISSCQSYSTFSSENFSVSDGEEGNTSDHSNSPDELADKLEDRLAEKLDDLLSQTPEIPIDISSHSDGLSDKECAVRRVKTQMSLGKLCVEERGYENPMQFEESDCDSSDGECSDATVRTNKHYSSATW
Chain of FER (P16591 whole entry): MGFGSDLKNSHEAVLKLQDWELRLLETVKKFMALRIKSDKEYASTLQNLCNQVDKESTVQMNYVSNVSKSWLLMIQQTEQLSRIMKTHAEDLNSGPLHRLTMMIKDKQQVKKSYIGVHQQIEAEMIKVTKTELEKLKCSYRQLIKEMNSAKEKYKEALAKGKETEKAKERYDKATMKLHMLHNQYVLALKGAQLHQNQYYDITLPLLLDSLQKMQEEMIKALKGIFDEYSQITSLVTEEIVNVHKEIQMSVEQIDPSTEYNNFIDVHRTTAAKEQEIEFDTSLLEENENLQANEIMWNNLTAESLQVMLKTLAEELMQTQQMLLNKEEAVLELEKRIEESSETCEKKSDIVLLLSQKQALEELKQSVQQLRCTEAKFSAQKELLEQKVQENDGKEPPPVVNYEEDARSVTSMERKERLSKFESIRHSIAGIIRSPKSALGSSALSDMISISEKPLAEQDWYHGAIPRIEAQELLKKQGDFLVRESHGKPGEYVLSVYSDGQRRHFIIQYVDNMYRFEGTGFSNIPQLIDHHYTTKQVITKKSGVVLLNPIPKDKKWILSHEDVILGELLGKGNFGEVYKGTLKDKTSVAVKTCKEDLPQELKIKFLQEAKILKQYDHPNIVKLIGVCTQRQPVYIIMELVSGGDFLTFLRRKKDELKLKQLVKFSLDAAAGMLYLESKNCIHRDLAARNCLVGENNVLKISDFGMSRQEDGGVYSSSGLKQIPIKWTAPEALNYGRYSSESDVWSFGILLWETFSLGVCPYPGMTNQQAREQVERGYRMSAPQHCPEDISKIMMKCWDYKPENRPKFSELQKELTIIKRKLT
Chain of NEK6 (Q9HC98 whole entry): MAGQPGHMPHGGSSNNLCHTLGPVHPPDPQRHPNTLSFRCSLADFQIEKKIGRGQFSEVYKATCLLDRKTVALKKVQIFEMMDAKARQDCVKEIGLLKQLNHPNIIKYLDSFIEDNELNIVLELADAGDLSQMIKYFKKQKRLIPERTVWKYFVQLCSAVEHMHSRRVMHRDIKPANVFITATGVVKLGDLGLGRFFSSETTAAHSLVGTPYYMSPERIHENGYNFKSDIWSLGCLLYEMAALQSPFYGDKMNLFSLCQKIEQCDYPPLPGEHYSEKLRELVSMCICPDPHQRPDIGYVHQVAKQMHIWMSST
Chain of STK11 (Q15831 whole entry): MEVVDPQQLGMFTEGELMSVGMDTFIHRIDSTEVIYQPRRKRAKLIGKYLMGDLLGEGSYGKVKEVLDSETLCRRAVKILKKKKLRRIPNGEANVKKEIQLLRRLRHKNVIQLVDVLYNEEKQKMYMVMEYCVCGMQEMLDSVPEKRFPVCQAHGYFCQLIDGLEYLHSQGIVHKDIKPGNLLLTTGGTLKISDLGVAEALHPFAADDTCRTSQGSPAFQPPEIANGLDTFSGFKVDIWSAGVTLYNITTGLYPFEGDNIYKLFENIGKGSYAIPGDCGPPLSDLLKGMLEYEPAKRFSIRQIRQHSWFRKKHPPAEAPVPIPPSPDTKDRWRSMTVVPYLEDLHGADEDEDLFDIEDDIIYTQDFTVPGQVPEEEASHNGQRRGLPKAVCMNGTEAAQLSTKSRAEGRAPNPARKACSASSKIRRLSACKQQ
Chain of EIF2AK1 (Q9BQI3 whole entry): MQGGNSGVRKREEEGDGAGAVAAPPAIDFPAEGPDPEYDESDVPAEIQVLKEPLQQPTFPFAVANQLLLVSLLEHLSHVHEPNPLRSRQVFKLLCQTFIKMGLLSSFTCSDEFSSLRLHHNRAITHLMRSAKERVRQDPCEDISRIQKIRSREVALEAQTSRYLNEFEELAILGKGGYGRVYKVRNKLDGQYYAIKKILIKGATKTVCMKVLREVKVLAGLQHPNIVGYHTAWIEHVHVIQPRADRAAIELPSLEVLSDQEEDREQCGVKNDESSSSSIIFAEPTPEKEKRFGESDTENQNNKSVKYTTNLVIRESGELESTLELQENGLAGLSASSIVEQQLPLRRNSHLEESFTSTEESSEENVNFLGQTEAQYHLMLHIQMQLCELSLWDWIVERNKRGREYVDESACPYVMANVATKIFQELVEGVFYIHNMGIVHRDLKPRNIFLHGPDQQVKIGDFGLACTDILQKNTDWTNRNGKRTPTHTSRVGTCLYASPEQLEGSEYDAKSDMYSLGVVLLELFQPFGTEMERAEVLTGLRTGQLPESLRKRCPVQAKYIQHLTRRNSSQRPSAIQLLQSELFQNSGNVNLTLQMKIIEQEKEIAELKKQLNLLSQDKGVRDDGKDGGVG
Chain of TP53RK (Q96S44 whole entry): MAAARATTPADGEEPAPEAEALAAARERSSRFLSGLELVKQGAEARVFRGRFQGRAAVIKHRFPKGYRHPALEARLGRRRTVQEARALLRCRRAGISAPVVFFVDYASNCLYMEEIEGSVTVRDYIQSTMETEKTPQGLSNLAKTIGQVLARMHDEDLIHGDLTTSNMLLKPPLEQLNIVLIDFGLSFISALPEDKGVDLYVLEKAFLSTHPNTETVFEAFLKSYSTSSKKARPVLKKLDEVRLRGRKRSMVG
Chain of PDXK (O00764 whole entry): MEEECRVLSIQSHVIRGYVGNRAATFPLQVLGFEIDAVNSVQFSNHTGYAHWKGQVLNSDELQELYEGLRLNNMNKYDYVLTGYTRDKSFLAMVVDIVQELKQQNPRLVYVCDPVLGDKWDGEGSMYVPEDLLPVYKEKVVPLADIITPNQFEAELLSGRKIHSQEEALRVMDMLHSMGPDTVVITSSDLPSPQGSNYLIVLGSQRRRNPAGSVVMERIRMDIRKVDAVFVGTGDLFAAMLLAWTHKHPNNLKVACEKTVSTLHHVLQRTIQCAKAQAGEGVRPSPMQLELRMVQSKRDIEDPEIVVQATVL
Chain of TAOK1 (Q7L7X3 whole entry): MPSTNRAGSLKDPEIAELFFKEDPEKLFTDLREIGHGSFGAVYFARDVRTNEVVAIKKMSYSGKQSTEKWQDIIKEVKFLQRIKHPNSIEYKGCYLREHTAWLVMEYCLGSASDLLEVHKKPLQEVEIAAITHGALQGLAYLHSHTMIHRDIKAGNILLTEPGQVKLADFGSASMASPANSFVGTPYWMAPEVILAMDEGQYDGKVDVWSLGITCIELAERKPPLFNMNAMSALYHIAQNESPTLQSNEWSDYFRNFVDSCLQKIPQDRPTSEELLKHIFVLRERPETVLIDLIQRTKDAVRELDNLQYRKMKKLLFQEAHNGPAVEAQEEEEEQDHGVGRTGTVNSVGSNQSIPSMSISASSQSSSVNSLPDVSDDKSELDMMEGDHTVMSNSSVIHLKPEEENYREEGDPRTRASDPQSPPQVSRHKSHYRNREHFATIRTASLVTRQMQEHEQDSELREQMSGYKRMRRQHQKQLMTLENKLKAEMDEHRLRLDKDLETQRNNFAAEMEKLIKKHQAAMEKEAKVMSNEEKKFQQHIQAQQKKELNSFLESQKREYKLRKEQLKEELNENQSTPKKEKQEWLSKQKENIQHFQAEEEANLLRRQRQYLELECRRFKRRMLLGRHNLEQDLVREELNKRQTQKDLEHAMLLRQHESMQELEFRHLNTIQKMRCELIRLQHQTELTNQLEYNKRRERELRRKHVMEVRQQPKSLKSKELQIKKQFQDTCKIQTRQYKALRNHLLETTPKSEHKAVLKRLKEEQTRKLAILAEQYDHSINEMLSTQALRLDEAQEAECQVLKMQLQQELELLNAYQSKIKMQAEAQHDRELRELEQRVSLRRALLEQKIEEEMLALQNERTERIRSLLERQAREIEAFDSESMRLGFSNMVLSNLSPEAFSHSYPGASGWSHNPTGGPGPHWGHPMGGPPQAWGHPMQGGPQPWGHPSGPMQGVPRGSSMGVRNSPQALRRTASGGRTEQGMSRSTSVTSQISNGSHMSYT

COc1nc(N[C@H]2CC[C@H](NS(=O)(=O)CC(C)C)CC2)nc2[nH]nc(N3CCOC[C@H]3C)c12 [compound 39, N-(trans-4-((4-Methoxy-3-((R)-3-methylmorpholino)-1H-pyrazolo[3,4-d]pyrimidin-6-yl)amino)cyclohexyl)-2-methylpropane-1-sulfonamide]
≤ 4.70: all assays above

Reference: publication PMC6407917, “Identification of GSK3186899/DDD853651 as a Preclinical Development Candidate for the Treatment of Visceral Leishmaniasis” (Journal of Medicinal Chemistry, 2018)
